Here are results for two compounds from ChEMBL document CHEMBL1151047, “NS 257 (1,2,3,6,7,8-hexahydro-3(hydroxyimino)-N,N,7-trimethyl-2-oxobenzo[2,1-b:3,4-c']dipyrrole-5-sulfonamide) is a potent, systemically active ampa receptor antagonist” (Bioorg Med Chem Lett, 1994).

The term IC50 denotes the concentration that gives 50% inhibition. A higher IC50 goes with weaker potency in that assay. As usually defined, the ED50 is the midpoint of the dose-response relation. Lower therefore signals greater potency.

The target of assay [1] is Glutamate receptor ionotropic, AMPA (Rattus norvegicus, UniProt P19490+P19491+P19492+P19493). In words: Binding affinity towards AMPA receptor to rat cortical membrane using [3H]AMPA as radioligand.
For the next assay, the system named is Mus musculus. In words: Ability to block the AMPA-induced convulsant effects in mice upon intracerebroventricular injection. The class given is functional. The settings on record: central.
Assay [2] has as its target Glutamate receptor ionotropic, NMDA 1 (Rattus norvegicus, UniProt P35439). As to the kind of experiment: Binding affinity towards glycine binding site of NMDA receptor to rat cortical membrane using [3H]glycine as radioligand.
Another assay has as its target Glutamate NMDA receptor. As to the kind of experiment: Binding affinity towards glutamate binding site of NMDA receptor to rat cortical membrane using NMDA sensitive [3H]-glutamate as radioligand.
For assay [3], the target named is Glutamate receptor ionotropic, kainate. As to the kind of experiment: Binding affinity towards kainate receptor to rat cortical membrane using [3H]kainate as radioligand.
The nature of assay [4]: Compound was tested for neuronal damage produced by application of 500 uM kainate. Format: functional.
Assay [5] in a line: Inhibitory activity against lactate dehydrogenase release was determined. Format: functional.

For the compound `CN1Cc2c(S(=O)(=O)N(C)C)cc3c(N=O)c(O)[nH]c3c2C1`, the IC50 is 0.7 µM in assay [1]; above 100 µM in assay [2]; 44 µM at Glutamate NMDA receptor; 13 µM in assay [3]; 10 µM in assay [4]; 9 µM in assay [5]. The same compound came in with a 50% effective dose (ED50) in the assay on Mus musculus of 10 mg/kg.

Compound `NS(=O)(=O)c1cccc2c1c([N+](=O)[O-])cc1nc(O)c(O)nc12` [NBQX] had an ED50 with Mus musculus of 10 mg/kg.
